Laboratory results from patent US20100004222A1, “Amide Derivatives as Ion-Channel Ligands and Pharmaceutical Compositions and Methods of Using the Same” (Renovis, Inc., priority 2006, published 2010).
Entries after “also recorded” stand apart in the source; their conditions may differ.

Key:
VR1 [1] = target: T1, VR1 (Homo sapiens, UniProt Q8NER1); test: Calcium uptake assay, capsaicin agonist (high throughput calcium imaging); type: cell-based; design: expressed in transfected cells; host or cells: T-REx HEK 293 (Invitrogen), pcDNA5/TO vector; settings: 3 nM; FIGS. 2-6
Target sequence in this assay (Q8NER1 whole entry): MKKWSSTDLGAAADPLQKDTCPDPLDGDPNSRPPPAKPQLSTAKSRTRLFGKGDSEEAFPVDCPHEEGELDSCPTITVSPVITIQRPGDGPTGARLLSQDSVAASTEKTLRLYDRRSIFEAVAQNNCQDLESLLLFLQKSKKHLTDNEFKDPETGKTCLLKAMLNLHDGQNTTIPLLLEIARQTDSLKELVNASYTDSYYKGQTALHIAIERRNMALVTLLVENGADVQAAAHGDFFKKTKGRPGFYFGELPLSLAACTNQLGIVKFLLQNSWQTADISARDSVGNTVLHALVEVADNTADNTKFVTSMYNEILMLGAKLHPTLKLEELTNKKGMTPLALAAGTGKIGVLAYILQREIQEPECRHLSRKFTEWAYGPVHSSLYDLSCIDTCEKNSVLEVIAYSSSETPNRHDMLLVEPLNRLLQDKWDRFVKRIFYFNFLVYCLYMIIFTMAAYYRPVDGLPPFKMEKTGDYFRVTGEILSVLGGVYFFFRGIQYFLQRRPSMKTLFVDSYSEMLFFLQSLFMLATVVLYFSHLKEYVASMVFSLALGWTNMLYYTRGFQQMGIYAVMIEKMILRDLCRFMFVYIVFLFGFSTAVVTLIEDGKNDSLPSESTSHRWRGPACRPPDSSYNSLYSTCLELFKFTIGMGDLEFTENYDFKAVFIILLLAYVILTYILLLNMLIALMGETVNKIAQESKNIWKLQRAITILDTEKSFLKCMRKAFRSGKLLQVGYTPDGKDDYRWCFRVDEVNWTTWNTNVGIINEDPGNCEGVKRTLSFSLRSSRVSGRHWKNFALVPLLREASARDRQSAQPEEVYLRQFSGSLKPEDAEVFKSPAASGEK

[2] = Pharmacokinetic evaluation following intravenous and oral administration in rats; type: in vivo; settings: male, Sprague-Dawley, plasma, rat; for bioavailability: AUCinf (PO)/AUCinf (IV), dose normalized, PO 5 mg/kg, read-out: Oral Bioavailability F (%); for clearance: non-compartmental analysis, read-out: In vivo Clearance (converted)
Experimental: Male Sprague-Dawley rats are acclimatized for at least 24 hours prior to experiment initiation. During acclimation period, all animals receive food and water ad libitum. However, food but not water is removed from the animal's cages at least 12 hours before initiation of the experiment. During the first 3 hours of experimentation, the animals receive only water ad libitum. At least three animal each are tested for intravenous and oral dosage. For intravenous formulation, compounds were dissolved (0.25 to 1 mg/mL) in a mixture of 3% dimethyl sulfoxide, 40% PEG 400 and the rest percentage of 40% Captisol in water (w/v). For oral formulation, compounds of this invention are dissolved (2 mg/mL) in a mixture of 5% of 10% Tween 80 in water (v/v) and 95% of 0.5% methyl cellulose in water (w/v). The animals are weighed before dosing. The determined body weight is used to calculate the dose volume for each animal.
Dose volume(mL/kg)=1 mg/kg/formulation concentration(mg/mL)
In instances where the formulation concentrations were less than 0.5 mg/mL, the dosing volume is about 2 mL/kg. PO rats are typically dosed through oral gavage at 2.5 mL/kg to achieve a dose level of 5 mg/kg. For IV dosing, blood samples are collected (using a pre-heparinized syringe) via the jugular vein catheter at 2, 5, 15, 30, 60, 120, 180, 300, 480, and 1440 minutes post dosing. For PO dosing, blood samples are collected (using a pre-heparinized syringe) via the jugular vein catheter before dosing and at 5, 15, 30, 60, 120, 180, 300, 480, and 1440 minutes post dosing. About 250 uL of blood is obtained at each time point from the animal. Equal volumes of 0.9% normal saline are replaced to prevent dehydration. The whole blood samples are maintained on ice until centrifugation. Blood samples are then centrifuged at 14,000 rpm for 10 minutes at 4° C. and the upper plasma layer transferred into a clean vial and stored at −80° C. The resulting plasma samples are then analyzed by liquid chromatography-tandem mass spectrometry. Following the measurement of plasma samples and dosing solutions, plasma concentration-time curve is plotted. Plasma exposure is calculated as the area under the concentration-time curve extrapolated to time infinite (AUCinf). The AUCinf is averaged and the oral bioavailability (% F) for individual animal is calculated as:
AUCinf (PO)/AUCinf (IV), normalized to their respective dose levels. The % F is reported as the mean % F of all animals dosed orally with the compound of the invention at the specified level (Table 6).
In vivo clearance in the rat was calculated by conducting a non-compartmental analysis of the pharmacokinetic profile using WinNonlin software.

VR1 receptor = test: Calcium imaging assay in DRG neurons (capsaicin); type: cell-based; settings: 3 nM, FIG. 1
Experimental: Therefore the functional activity of compounds at the VR1 receptor may be determined by measuring changes in intracellular calcium levels in neurons such as the dorsal root ganglion. […] Prior to assay, cells were loaded with 5 μg/ml Fura2 in normal saline solution at 37° C. for 40 minutes. Cells were then washed with normal saline to remove dye before commencement of the experiment. The plated neurons were transferred into a chamber on the stage of a Nikon eclipse TE300 microscope after which neurons were allowed to attain a stable fluorescence for about 10 minutes before beginning the experiment. The assay consists of two stages, a pretreatment phase followed by a treatment phase. First, a solution of the test compound was added from a multivalve perfusion system to the cells for 1 minute (pretreatment). […] Fura2 was excited at […] to indicate relative calcium ion concentration. Changes in wavelength measurements were made throughout the course of the experiment. The fluorescence ratio was calculated by dividing fluorescence measured at 340 nm by that at 380 nM. Data were collected using Intelligent Imaging's Slidebook software.

[3] = test system: Dorsal root ganglion (DRG) neurons; test: Whole-cell patch clamp electrophysiology; type: cell-based; settings: Rattus norvegicus, DRG neuron, read-out: % inhibition of capsaicin induced current
Experimental: Dorsal root ganglion (DRG) neurons were recovered from either neonatal or adult rats and plated onto poly-D-lysine coated glass coverslips. The plated neurons were transferred into a chamber to allow drug solutions to be added to the cells using a computer-controlled solenoid-valve based perfusion system. The cells were imaged using standard DIC optics. Cells were patched using finely-pulled glass electrodes. Voltage-clamp electrophysiology experiments were carried out using an Axon Instruments Multiclamp amplified controlled by pCLAMP8 software.

VR1 [4] = target: T1, VR1; test: Acid stimulation assay (FDSS 6000); type: cell-based; settings: final assay buffer pH5.8, 15 min pre-incubation
Experimental: The Acid-induced changes in the intracellular calcium concentration were monitored using FDSS 6000 (Hamamatsu Photonics, Japan), a fluorometric imaging system. The cell suspension in resting buffer (HBSS supplemented with 10 mM HEPES, pH 7.4) was pre-incubated with varying concentrations of the test compounds or resting buffer (buffer control) for 15 minutes at room temperature under dark conditions. The cells were automatically added the stimulating solution (HBSS supplemented with MES, final assay buffer pH5.8) by the FDSS 6000.
Target sequence in this assay (Q8NER1 whole entry, species assumed): as the sequence (Q8NER1 whole entry) above

[5] = Half-life in human liver microsomes (HLM); type: in vitro ADME; settings: pH 7.4, 1 μM compound, 0.78 mg/mL HLM, 37° C.
Experimental: Test compounds (1 μM) are incubated with 3.3 mM MgCl2 and 0.78 mg/mL HLM (HL101) in 100 mM potassium phosphate buffer (pH 7.4) at 37° C. on the 96-deep well plate. The reaction mixture is split into two groups, a non-P450 and a P450 group. NADPH is only added to the reaction mixture of the P450 group. An aliquot of samples of P450 group is collected at 0, 10, 30, and 60 min time point, where 0 min time point indicated the time when NADPH is added into the reaction mixture of P450 group. An aliquot of samples of non-P450 group is collected at −10 and 65 min time point. Collected aliquots are extracted with acetonitrile solution containing an internal standard. The precipitated protein is spun down in centrifuge (2000 rpm, 15 min). The compound concentration in supernatant is measured by LC/MS/MS system.
The half-life value is obtained by plotting the natural logarithm of the peak area ratio of compounds/internal standard versus time. The slope of the line of best fit through the points yields the rate of metabolism (k). This is converted to a half-life value using following equations: […]

VR1 [6] = target: T1, VR1; test: Calcium uptake assay, low pH (proton) agonist; type: cell-based; design: expressed in transfected cells; host or cells: T-REx HEK 293 (Invitrogen), pcDNA5/TO vector; settings: HEK293; 0.3 μM compound; low pH (protons) as agonist; HEK 293 cells expressing hVR1; read-out: Low pH % Inhib. @ 0.3 μM
Target sequence in this assay (Q8NER1 whole entry): as above

Compound | inhibition of the Capsaicin induced intracellular calcium response (VR1 [1]) | bioavailability [2] [%] | clearance [2] [mL/min/kg] | IC50 (VR1 [4]) [nM] | half-life at 1 μM [5] [h] | inhibition at 0.3 µM (VR1 [6]) [%] | inhibition of the Capsaicin induced intracellular calcium response (VR1 receptor) | inhibition at 0.1 µM [3] [%]
O=C(Nc1cccc2cnccc12)c1ccc(C#CC(F)(F)F)cc1 [Compound 45] | significant inhibition | – | – | – | – | – | – | –
Cc1cc(/C=C/C(F)(F)F)ccc1C(=O)Nc1cnc2ccccc2c1 [Compound 187, 2-Methyl-N-quinolin-3-yl-4-((E)-3,3,3-trifluoro-propenyl)-benzamide] | significant inhibition | 43 | 1.83 | – | – | – | – | –
COc1cc(NC(=O)c2ccc(/C=C/C(C)C)cc2)cc(C(F)(F)F)c1 [Compound 240] | – | – | – | – | – | – | – | 50
Cc1cc(/C=C/C(F)(F)F)ccc1C(=O)Nc1cnc2cccnc2c1 [Compound 318, (E)-2-methyl-N-(1,5-naphthyridin-3-yl)-4-(3,3,3-trifluoroprop-1-enyl)benzamide] | – | 59 | 1.33 | 3 | 2.96 | 104 | – | –
Cc1nc2cc(NC(=O)c3ccc(/C=C/C(F)(F)F)cc3C)cnc2s1 [Compound 412, (E)-2-methyl-N-(2-methylthiazolo[5,4-b]pyridin-6-yl)-4-(3,3,3-trifluoroprop-1-enyl)benzamide] | – | 11 | 7.17 | 20 | 0.81 | 105 | – | –
Cc1cc(/C=C/C(F)(F)F)ccc1C(=O)Nc1cnc2sc(CO)nc2c1 [Compound 413, (E)-N-(2-(hydroxymethyl)thiazolo[5,4-b]pyridin-6-yl)-2-methyl-4-(3,3,3-trifluoroprop-1-enyl)benzamide] | – | > 100 | 3.83 | 4 | 3.22 | 110 | – | –
Cc1cc(/C=C/C(F)(F)F)ccc1C(=O)Nc1cnc2scnc2c1 [Compound 415, (E)-2-methyl-N-(thiazolo[5,4-b]pyridin-6-yl)-4-(3,3,3-trifluoroprop-1-enyl)benzamide] | – | 45 | 0.833 | 8 | 4.82 | 130 | – | –

Second part, led by results:

inhibition of the Capsaicin induced intracellular calcium response (VR1 [1]) | bioavailability [2] [%] | clearance [2] [mL/min/kg] | IC50 (VR1 [4]) [nM] | half-life at 1 μM [5] [h] | inhibition at 0.3 µM (VR1 [6]) [%] | Compound | inhibition of the Capsaicin induced intracellular calcium response (VR1 receptor) | inhibition at 0.1 µM [3] [%]
significant inhibition | – | – | – | – | – | C/C(=C\C(F)(F)F)c1ccc(C(=O)Nc2ccc3c(c2)OCCN3)cc1 [Compound 96] | – | –
significant inhibition | – | – | – | – | – | Cc1cc(C#CC(C)(C)C)ccc1C(=O)Nc1ccc2c(c1)OCC(CO)N2 (centres unmarked) [Compound 167] | – | –
– | – | 1.52 | – | – | – | Cc1cc(/C=C/C(F)(F)F)ccc1C(=O)Nc1ccc2sc(CO)nc2c1 [Compound 225] | reduced; also recorded: significant inhibition | –
significant inhibition | 54 | 33.3 | – | – | – | Cc1cc(/C=C/C(F)(F)F)ccc1C(=O)Nc1cnc2c(c1)OCC(CO)N2 (centres unmarked) [Compound 233] | – | –
